Experiment [1] addresses T1, neuraminidase from Clostridium perfringens (Clostridium perfringens, UniProt A0A0H2YQR1). The format is biochemical. Particulars: for Inhibition Mode: Lineweaver–Burk plot; for Ki: Dixon plot, read-out: Ki (inhibition constant); for IC50: fluorescent substrate 100 μM, 0.2 unit/mL enzyme, 50 mM sodium acetate buffer, read-out: IC50 against bacterial neuraminidase (BNA).
For experiment [2], the target named is T1, neuraminidase from Clostridium perfringens. The format is binding. Particulars: for KSV (Stern–Volmer quenching constant): excitation 290 nm, emission near 360 nm.
The mark [3] stands for this setting: fluorescence quenching, without substrate.

This note sets out measurements from publication PMC10386613 (Molecules, 2023).

For orientation: Ki means the equilibrium dissociation constant of an inhibitor or competing ligand from its target. Usually IC50 stands for the concentration that gives 50% inhibition.

Where “and” joins values, the source holds several entries; their conditions need not be identical. Identical values can stand only once. Like-named read-outs stand apart in the source and are kept apart here.

T1 sequence (A0A0H2YQR1 42-694 limits assumed): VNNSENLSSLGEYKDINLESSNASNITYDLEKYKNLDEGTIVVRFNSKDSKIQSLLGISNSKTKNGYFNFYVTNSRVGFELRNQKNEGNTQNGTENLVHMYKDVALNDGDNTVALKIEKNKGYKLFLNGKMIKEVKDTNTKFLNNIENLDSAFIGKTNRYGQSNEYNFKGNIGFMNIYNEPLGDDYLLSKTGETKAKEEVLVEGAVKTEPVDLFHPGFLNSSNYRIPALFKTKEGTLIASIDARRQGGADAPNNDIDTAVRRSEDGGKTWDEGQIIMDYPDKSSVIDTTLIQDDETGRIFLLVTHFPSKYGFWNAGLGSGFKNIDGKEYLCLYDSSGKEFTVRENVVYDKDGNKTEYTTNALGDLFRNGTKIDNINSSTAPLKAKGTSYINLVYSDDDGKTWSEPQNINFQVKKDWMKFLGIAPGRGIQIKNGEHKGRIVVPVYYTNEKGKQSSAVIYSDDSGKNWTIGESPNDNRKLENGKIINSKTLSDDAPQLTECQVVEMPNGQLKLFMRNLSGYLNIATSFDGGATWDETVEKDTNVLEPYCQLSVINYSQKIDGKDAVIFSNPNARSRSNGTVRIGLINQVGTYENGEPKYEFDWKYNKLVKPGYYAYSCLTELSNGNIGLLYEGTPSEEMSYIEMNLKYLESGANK

Regarding `COc1c(-c2ccc(O)c(O)c2)oc2cc(O)cc(O)c2c1=O` [Compound 1, 3-O-methyl quercetin], the “Inhibition Mode” value in experiment [1] is on record as “Noncompetitive”. The “KA (binding constant)” value in experiment [2] turned out to be 0.05105. In addition, in experiment [2] (without substrate), the “KSV (Stern–Volmer quenching constant)” value amounted to 2520 L/mol. The “n (number of binding sites)” value in experiment [2] (setting [3]) is on record as 1.2106.

Regarding `COc1cc(O)c2c(=O)c(OC)c(-c3ccc(OC)c(O)c3)oc2c1` [Compound 4, 3,7,4′-O-trimethyl quercetin], the “Inhibition Mode” value in experiment [1] is “Noncompetitive”. In addition, the “KA (binding constant)” value in experiment [2] is reported as 0.00021. Further, the “KSV (Stern–Volmer quenching constant)” value in experiment [2] (without substrate) was found to be 360 L/mol. Further, the “n (number of binding sites)” value in experiment [2] (setting [3]) is 0.7071.

With 3,7-O-dimethyl quercetin [Compound 3], in experiment [1], the Ki turned out to be 22.4 ± 0.9 µM; the “Inhibition Mode” value is “Noncompetitive”; the IC50 was 25.8 µM and 24.3 µM. Further, in experiment [2] (without substrate), the “KSV (Stern–Volmer quenching constant)” value was determined as 1530 L/mol. In addition, in experiment [2] (setting [3]), the “KA (binding constant)” value was 38180 L/mol and the “n (number of binding sites)” value came to 1.0959.

For 3,4′-O-dimethyl quercetin [Compound 2], in experiment [1], the Ki was determined as 24.7 ± 0.5 µM; the “Inhibition Mode” value was “Noncompetitive”; the IC50 is 24.3 µM and 25.8 µM. Further, the “KSV (Stern–Volmer quenching constant)” value in experiment [2] (without substrate) amounted to 1440 L/mol. Moreover, in experiment [2] (setting [3]), the “KA (binding constant)” value was found to be 39940 L/mol and the “n (number of binding sites)” value came out at 1.1063.
